Experimental findings from patent publication US20220409686A1, “MEDICAL COMPOSITIONS AND THEIR USES” (BIOMILLENIA SAS, priority 2019, published 2022) are described below.

Common to all, as to type: cell-based
Assay [1] deals with Malassezia globosa. Put plainly: modified disc diffusion assay with living culture (Example 2). The conditions noted are these: M. globosa lawn; discs soaked with 15 ul exponentially growing Acetobacter culture or ketoconazole 1 mg/mL in DMSO; 5 days incubation. Here is the method:
(§1) FIG. 1|Inhibition assays of M. restricta and M. globose by growth of Acetobacter fabarum. Discs were soaked with ketoconazole (1 mg/ml in DMSO) or exponentially growing Acetobacter fabarum culture and placed on agar plates containing a soft layer inoculated with a single culture of the different Malassezia species to be tested. In the upper panel, inhibition of Malassezia globosa is shown; in the bottom panel, Malassezia restricta is shown.
(§2) In order to identify strains whose growth inhibits Malassezia, inhibition assays were performed using a modified disc diffusion method. This method is similar to the classical disc diffusion method that consists in depositing discs imbibed with potential inhibitory substances on Petri plates containing a strain of interest, except that the discs were imbibed with a living culture of an Acetobacter strain. After optimal growth of the strain of interest, growth inhibition can be observed around discs on which the growth of inhibitory bacteria has occurred. Ketoconazole (at 1 mg/mL in DMSO) was used as a positive control for Malassezia growth inhibition. The effect of growth of Acetobacter was tested on Malassezia restricta and Malassezia globosa. All Malassezia strains were streaked from −80° C. stock on Modified Leeming and Notman (MLN) agar plates and incubated 10 days at 30° C. […]
In general terms: A growth-free zone around the sample is the usual read-out of agar diffusion tests.

For assay [2], the system named is Malassezia restricta. Described as above. The conditions noted are these: M. restricta lawn; discs soaked with 15 ul exponentially growing Acetobacter culture or ketoconazole 1 mg/mL in DMSO; 5 days incubation. Here is the method: as §1, §2
For the next assay, the system named is Malassezia sympodialis. Put plainly: disc diffusion inhibition assay (Example 1). The settings on record: M. sympodialis lawn in soft agar; 6 mm discs soaked with 15 ul supernatant or ketoconazole 1 mg/ml in DMSO; 5 days incubation. Here is the method: (§3) FIG. 1|Inhibition assays of the fungicide ketoconazole as positive control for inhibition and Kazachstania unispora supernatant on M. sympodialis, M. furfur, M. restricta and M. globosa. Inhibition assays were performed using the disc diffusion method. Discs were soaked with ketoconazole (1 mg/ml) or K. unispora supernatant and placed on agar plates containing a soft layer inoculated with a single culture of the different Malassezia species to be tested.
(§4) In order to identify strains inhibiting Malassezia growth, inhibition assays were performed using the disc diffusion method. This method consists in disposing discs imbibed with potential inhibitory substances on Petri plates containing a strain of interest. After optimal growth of the strain of interest, growth inhibition can be observed around discs soaked with substances having an inhibitory effect. Potential inhibitory substances tested in this experiment are supernatants obtained after individually culturing a collection of fungal and bacterial strains. After an incubation of 10 days in their optimal broth, each culture was centrifuged and the supernatant was filtered and further stored at −20° C. Ketoconazole, a fungicide, was used as a positive control for Malassezia growth inhibition. It was diluted in dimethyl sulfoxide at 1 mg/ml. The collection of supernantants was tested on the following species from the genus Malassezia: Malassezia restricta, Malassezia globosa, Malassezia furfur and Malassezia sympodialis. All strains were streaked from −80° C. stock on Modified Leeming and Notman (MLN) agar plates and incubated 10 days at 30° C. A 5 ml liquid culture of each species was made in MLN broth and incubated at 30° C. for 2 days for M. furfur and M. sympodialis and 5 days for M. restricta and M. globosa. To allow a lawn growth of the different Malassezia strains tested, Petri plates were prepared as follows: a bottom layer of 50 ml Modified Sabouraud Dextrose (MSD) agar was poured in Petri plates. The soft agar, constituting the top layer, was a mix of 12.5 ml MSD agar, 10.5 ml MLN broth and 2 ml of liquid culture. Plates were allowed to dry for one hour, then, 6 mm-diameter Whatman™ discs were soaked with 15 ul of each thawed supernatants and ketoconazole and placed on the soft agar plate containing the solidified Malassezia monoculture layer. After an incubation of 5 days, inhibition area could be easily observed around discs. As expected, ketoconazole inhibited all 4 Malassezia species tested in this experiment. […] The strain from which the inhibitory supernatant has been produced was further sequenced using the Sanger technology. The internal transcribed spacer (ITS) of this strain was taxonomically assigned to the yeast Kazachstania unispora (BLASTn, 99% identity, 99% query cover, e-value 0.00).

Another assay deals with Malassezia furfur. Briefly: disc diffusion inhibition assay (Example 1). The settings on record: M. furfur lawn in soft agar; 6 mm discs soaked with 15 ul supernatant or ketoconazole 1 mg/ml in DMSO; 5 days incubation. The procedure:
as §3, §4

Assay [3] concerns Malassezia globosa. Briefly: disc diffusion inhibition assay (Example 1). The conditions noted are these: M. globosa lawn in soft agar; 6 mm discs soaked with 15 ul supernatant or ketoconazole 1 mg/ml in DMSO; 5 days incubation. The procedure:
as §3, §4

The test system of assay [4] is Malassezia restricta. Briefly: disc diffusion inhibition assay (Example 1). The conditions noted are these: M. restricta lawn in soft agar; 6 mm discs soaked with 15 ul supernatant or ketoconazole 1 mg/ml in DMSO; 5 days incubation. Here is the method:
as §3, §4

Each structure is given as a SMILES string. “Also recorded” adds a separate entry of the source.

`CC(=O)N1CCN(c2ccc(OCC3COC(Cn4ccnc4)(c4ccc(Cl)cc4Cl)O3)cc2)CC1` (stereo not drawn) [ketoconazole]: the “growth inhibition (inhibition halo around disc)” value in the assay with Malassezia globosa [1], with Malassezia restricta [2], in the assay on Malassezia sympodialis, in the assay with Malassezia furfur, in the assay on Malassezia globosa [3] and with Malassezia restricta [4] was “inhibits growth; also recorded: inhibited” each time.
